Reference: patent US11351538B2, “Fluidic device and method of assembling same” (Northeastern University, priority 2017, dated 2022)

System: primary human intestinal epithelial monolayers
Assay: Paracellular permeability measurement across primary organoid derived monolayers (bi-layer chips vs static inserts)
Format: in vitro ADME
Settings: apical to basal, 5 days, p-value=0.0029
Description: The apparent permeability coefficient for a 4.4 kDa, tetramethylrhodamine (TRITC) labeled dextran (cat no. T1037, Sigma-Aldrich) was determined by measuring transport across the Caco-2 cell monolayer. TEER values of cell monolayers were measured prior to the permeability assay and monolayers with TEER values below 165Ω×cm^2 were not used. For control Transwell cultures, 300 μL of 500 μM dextran in cell culture medium was applied to the apical compartment. 100 μL was immediately sampled from the apical compartment, transferred to a black, polystyrene, 96 well plate and stored in a 4° C. fridge. Transwells were maintained in a humidified, 37° C.+5% CO2 incubator. 100 μL aliquots were sampled from the basolateral compartment every 30 minutes over 3 hours and 100 μL of fresh medium preheated to 37° C. was added to replace the aliquoted volume. The fluorescence intensity of the collected basolateral samples was measured at 557 nm and 576 nm […] wavelengths, respectively. The actual dextran concentration was determined via a calibration curve. The apparent permeability coefficient was calculated as specified. […] The apparent permeability coefficient for Lucifer Yellow (cat no. L0259, Sigma-Aldrich) across primary organoid derived monolayers on static inserts and bi-layer chips was determined as described above. […]

apparent permeability, change between 5-day static and fluidic device models: significant increase
Substance: Lucifer Yellow
